Data: PMC4557289, “Thymoproteasomes produce unique peptide motifs for positive selection of CD8^+ T cells” (Nature Communications, 2015)
“Also recorded” adds a separate entry of the source.

How the values were obtained:
OT-I TCR [1] = assay: MHC-tetramer-binding assay (peptide/H-2K^b tetramers); design: species or system mouse; conditions: peptide/H-2K^b tetramers on CD4/CD8 double-positive thymocytes from Tap1^−/− OT-I TCR-transgenic mice, 100 μM cytochalasin D, 37 °C, 90 min, flow cytometry; Fig. 6b; result in words
Procedure: CD4/CD8 double-positive thymocytes from Tap1^−/− OT-I TCR transgenic mice (6- to 8-week-old females) were stained with indicated peptide-K^b tetramers (MBL) in the presence of 100 μM cytochalasin D (Sigma-Aldrich) at 37 °C for 90 min (refs [31], [44]) and were analysed using flow cytometry.

OT-I TCR [2] = assay: CD4/CD8 dulling assay, OT-I thymocytes; assay type: cell-based, mouse; conditions: thymocytes from Tap1^−/− OT-I TCR-transgenic mice (n=3) with peptide and irradiated B6-Ly5.1 splenocytes, 18 h, flow cytometry; Fig. 6c; result in words
Procedure: Dulling assay was performed as described[45][46] with minor modifications. Thymocytes from Tap1^−/− OT-I TCR transgenic mice were stimulated in the presence of peptides and irradiated splenocytes from B6-Ly5.1 mice (CD45.1^+CD45.2^−). Female mice at 6–8 weeks of age were used for experiments. After 18 h, thymocytes were stained with antibodies specific for CD4 (GK1.5), CD8 (53-6.7), CD45.1 (A20) and CD45.2 (104) and analysed using flow cytometry (antibodies were obtained from Biolegend and used at 10 μg ml^−1). Specific dulling of CD4 and CD8 expression induced by peptide stimulation was calculated as previously described.

OT-I TCR [3] = assay: agonist activity assay (T-cell stimulation, CD69), mature OT-I cells; assay type: cell-based, mouse; conditions: splenocytes from Rag^−/− OT-I TCR transgenic mice (n=3), peptide 5 h, CD69 on CD8^+CD44^lo cells; Fig. 6d; result in words
Procedure: Spleen cells from Rag1^−/− OT-I TCR transgenic mice (8-week-old females) were cultured in the presence of peptides for 5 h. CD69 expression on CD8^+CD44^lo cells was analysed using flow cytometry using anti-CD69 antibodies (H1.2F3; BD Pharmingen, 10 μg ml^−1).

[4] = tested on: thymus lobes from Tap1^−/− OT-I TCR transgenic mice; assay: fetal thymus organ culture (FTOC) of OT-I thymocytes; assay type: cell-based, mouse; conditions: E15 thymus lobes, peptide 20 μM, 3 days, result in words
Procedure: FTOC was essentially performed as described previously. Embryonic mice on day 15 of gestation were obtained from Tap1^−/− OT-I TCR transgenic mice. Thymus lobes were cultured on Isopore membrane filters (Millipore) placed on Gelfoam sponge (Pfizer) floated in medium. Peptides were added at a concentration of 20 μM. After 3 days in the culture, thymocytes were stained with antibodies specific for CD4 (GK1.5), CD8 (53-6.7) and Vα2 (B20.1) and analysed using flow cytometry; staining antibodies were obtained from Biolegend and were used at 10 μg ml^−1.

OT-I thymocytes = conditions: known classification of OVAp and variants, Fig. 6a; cited from earlier work
Description: To examine whether these peptide features play roles in thymic selection, we employed the OVA-specific TCR transgenic line OT-I, which is the best-studied model of amino-acid substitution in MHC-associated peptides for thymic selection of functionally competent MHC-I-restricted T cells. […] We then tested OVAp variant peptides with tCP ... || Figure 6 OVAp peptide variants with tCP-dependent motifs show lower affinities to OT-I TCR. (a) List of OVAp variants used for assays in b–d and Fig. 7a,b. (b) Binding of peptide/H-2K^b tetramers to CD4/CD8 double-positive thymocytes from Tap1^−/− OT-I TCR-transgenic mice. (c) Dulling of CD4/CD8 co-receptors in OT-I thymocytes by OVAp variants. Thymocytes from Tap1^−/− OT-I TCR-transgenic mice (n=3) were stimulated in the presence of peptides at indicated concentrations and irradiated splenocytes from B6-Ly5.1 mice. (d) Activation of mature OT-I cells by OVAp variants. Splenocytes from Rag2^−/ ...

affinity to OT-I TCR by MHC-tetramer-binding assay (OT-I TCR [1]): high affinity
Sequence: SIINFEKL [OVAp]
affinity to OT-I TCR by CD4/CD8 dulling assay (OT-I TCR [2]): high affinity
affinity to OT-I TCR by agonist activity assay (OT-I TCR [3]): high affinity
CD4/CD8 double-positive cells in FTOC ([4]; Fig. 7a,b): depletion of CD4/CD8 double-positive cells
number of OT-I TCR^high (Vα2^high) CD8 single-positive thymocytes in FTOC, compared with unrelated peptide gp33 ([4]; Fig. 7b, n=3, Student's t-test): clear decrease
Effects on DP thymocytes (thymic selection of OT-I thymocytes) (OT-I thymocytes): mediates negative selection; also recorded: Negative selector, original Ag
